The text below walks through data of publication PMC7617456, “Cryptosporidium lysyl-tRNA synthetase inhibitors define the interplay between solubility and permeability required to achieve efficacy” (Science translational medicine, 2024).

Values after ≈ are worked out from the molar mass of the structure shown. Where two headings read alike, the source gives them in different places.

The nature of series [1]: Biopharmaceutical Classification System (BCS) categorization. It counts as physicochemical. The following applies: cut-offs solubility 100 μM, permeability 30 nm/s; Table S1 prints 1-4 for I-IV. An excerpt: To investigate our key parameters, solubility and permeability, we used the Biopharmaceutical Classification System (BCS)([13]) to categorize our tool compounds in a methodical way. […] Restricting either of these properties is likely to have a rate-determining effect on absorption (Class II, purple; Class III, teal). Using the BCS to prioritize compounds for in vivo studies allowed us to systematically examine these individual property combinations and determine whether modulating solubility or permeability influenced compound efficacy. Our hypothesis was that slow absorption due to suboptimal solubility or permeability (i.e. Class II or Class III) would maximize compound concentration at the biophase following a single oral dose.
(A) Schematic of Biopharmaceutical Classification System (BCS). (B) Aqueous solubility and Parallel Artificial Membrane Permeability Assay (PAMPA) measurements of tool compounds from each BCS class. Data are means of two technical replicates. Solubility and permeability cut-offs were defined at 100 μM and 30 nm/s respectively. Raw data reported for all tool compounds in Table S1. (C) NOD SCID Gamma mice were infected with wild type C. parvum. Vehicle, positive control, or tool compound was administered via oral gavage starting day 7 post infection (PI) for 7 days (gray box indicates treatment period). Fecal samples were collected on days indicated by arrows. Fecal samples were collected from individual mice (4 animals per treatment group) and analyzed by qPCR to quantify parasite shedding (oocysts/g). (D) Log reduction in oocyst shedding measured on day 14 PI vs day 21 PI for tool compounds (colored by BCS class) dosed orally at either 30 or 50 mg/kg twice a day (BID) for 7 days in NOD SCID Gamma mice. […] Mean oocyst shedding was determined for each group of n=4 mice, for all compounds tested. Log reduction in oocyst shedding was calculated as log (mean oocysts on day 7) – log (mean oocysts on day 14 or 21).

The nature of series [2]: Aqueous (kinetic) solubility by UHPLC. It counts as physicochemical. The following applies: PBS pH 7.4, UHPLC. Here is the method:
As previously described.(27) […]
samples were prepared by adding 5 µL stock to PBS pH 7.4 (195 µL). This solution was mixed […]
The solubility test samples were […]
vacuum ﬁ ltered (Millipore Multiscreen HTS ﬁ lter, 96-well format) to remove any undissolved […]
material. The ﬁ ltrate was analyzed for dissolved drug compound using a truncated UHPLC […]
methodology. A calibration solution was prepared for each test compound. The 10 mM stock […]
solution was diluted in DMSO to give a 500 µM solution. This was further diluted with 50:50 […]
acetonitrile:water to give a 50 µM solution. Aliquots (0.2, 2.0, and 5.0 µL) of this 50 µM solution were injected onto the UHPLC system, and the areas of the resultant peaks were […]
integrated to produce a calibration line. Aliquots of the test sample ﬁ ltrate (0.4 and 5.0 µL) […]
were injected onto the UHPLC system and the resultant test compound peak areas quantiﬁ ed […]
using the calibration line. […]

The next series is described as follows: PAMPA permeability. It counts as in vitro ADME. The following applies: for Papp at 5 h, 10 µM: PAMPA, pH 7.4, pH 7.4; for PAMPA Papp: pH 7.4. The procedure:
Solubility test samples were prepared by adding 5 μL stock to PBS pH 7.4 (195 μL). […] […] vacuum […] (Millipore Multiscreen HTS fi lter, 96-well format) to remove any undissolved material. The […] analyzed for dissolved drug compound using a truncated UHPLC methodology. A calibration solution was prepared for each test compound. […] Aliquots of the test sample […] (0.4 and 5.0 μL) were injected onto the UHPLC system and the resultant test compound peak areas quantifi ed […] PAMPA per meability As previously described.(28) The permeability assay was performed using a 96-well precoated BD Gentest PAMPA plate (BD Biosciences). Each well was divided into two chambers: donor and acceptor, separated by a lipid-oil-lipid trilayer constructed in a porous fi lter. […] Stock solutions (5 mM) of the compound were prepared in DMSO. […] The compound dissolved in phosphate buffered saline was added to the donor side of the membrane, and phosphate-buffered saline without the compound was added to the acceptor side. The PAMPA plate was left at room temperature for 5 h then an aliquot (100 μL) was removed from both acceptor and donor compartments and mixed with acetonitrile (80 μL) containing an internal standard: donepezil at 50 ng/mL. The samples were centrifuged (10 min, 5 °C, 3270×g) to sediment lipids and sealed prior to UPLC-MS/MS analysis using a Quattro Premier XE (Waters Corp, USA). Recovery of the compound from donor and acceptor wells was calculated, and data were only accepted when recovery exceeded 70%.
Background: The PAMPA barrier holds no transporters, so it reflects passive diffusion.

The test system of another series is C. parvum. The experiment in a line: microbe, parasite or virus in culture. It counts as cell-based, Cryptosporidium parvum.
[3] abbreviates: 25 °C, aqueous buffer, kinetic from dmso stock.
Setting [4] is: Cryptosporidium parvum, HCT-8, 48 h, read-out: C. parvum EC50, co-cultured with HCT-8 cells for 48 hrs.
The mark [5] stands for this setting: Cryptosporidium parvum, HCT-8, read-out: C. parvum EC90.
Setting [6] is: calculated from the average EC50 and hill slope, read-out: C. parvum EC90.
[7] abbreviates: co-cultured with HCT-8 cells for 48 hrs, read-out: C. parvum EC50.

By solubility is commonly meant the dissolved amount per volume that the medium holds. Low values mean a poorly soluble substance, high ones a readily soluble substance. The Papp is the rate of passage across a membrane or cell layer, normalised by area and donor concentration. A high value points to ready permeation. What is called EC50 is the concentration giving half of the maximal effect. As a reminder, the EC90 is the concentration at which the effect reaches the 90% level.

Turning to `Nc1cc(F)cc2c(=O)cc(C(=O)NCC3(O)CCCCC3)oc12` [DDD229], in series [1], the “BCS Class” value is 4. For the same compound, the concentration in solution in series [2] (setting [3]) (solubility at 24 h) was 1.9 µM (≈ 0.635 µg/mL). For the same compound, in the series “PAMPA permeability”, the Papp at 5 h, 10 µM was 1.9 ×10⁻⁶ cm/s. For the same compound, the EC50 in the series on C. parvum (setting [4]) is 30 nM. In addition, in the series on C. parvum (setting [5]), the EC90 was 80 nM.

`Nc1nc2c(c(C(F)F)n1)C(=O)N(C[C@@H]1CCC[C@H](C(F)(F)F)C1)C2` [DDD352]: the “BCS Class” value in series [1] is 2. The compound further registered a solubility at 24 h in series [2] of 32 µM (≈ 11.7 µg/mL). Moreover, the “PAMPA Papp” value in “PAMPA permeability” worked out at 19.3 ×10⁻⁶ cm/s. The EC90 in the series on C. parvum (setting [6]) was 60 nM. Besides, in the series on C. parvum (setting [7]), the EC50 amounted to 20 nM.

`Cc1nc(N)nc2c1C(=O)N(C[C@@H]1CCC[C@H](C(F)(F)F)C1)C2` [DDD478]: the “BCS Class” value in series [1] turned out to be 2. In addition, the solubility at 24 h in series [2] was 57 µM (≈ 18.7 µg/mL). In addition, the “PAMPA Papp” value in “PAMPA permeability” is 13.8 ×10⁻⁶ cm/s. The EC90 in the series on C. parvum (setting [6]) is 40 nM. Also, the EC50 with C. parvum (setting [7]) is 20 nM.

On to `COc1cc(NS(=O)(=O)CCN2CCCC2)c2oc(C(=O)N[C@@H](C)C3CCCCC3)cc(=O)c2c1` [DDD582], for which the “BCS Class” value in series [1] is listed as 3. Besides, the solubility at 24 h in series [2] (setting [3]) came out at 225 µM (≈ 114 µg/mL). The Papp at 5 h, 10 µM in the series “PAMPA permeability” stood at 1.6 ×10⁻⁶ cm/s. Besides, the EC50 in the series on C. parvum (setting [4]) was 150 nM. For the same compound, the EC90 in the series with C. parvum (setting [5]) is 370 nM.

Take `COc1ccc2oc(C(=O)NCC3(O)CCCCC3)cc(=O)c2c1` [DDD583]: the “BCS Class” value in series [1] came to 2. Further, the solubility at 24 h in series [2] (setting [3]) came out at 33 µM (≈ 10.9 µg/mL). In addition, the Papp at 5 h, 10 µM in “PAMPA permeability” was found to be 11.5 ×10⁻⁶ cm/s. Besides, the EC50 in the series with C. parvum (setting [4]) is 140 nM. In the series with C. parvum (setting [5]), the 90% effect concentration (EC90) amounted to 330 nM.

For `O=C(NCC1CCCCC1)c1cc(=O)c2cc(F)c(F)c(O)c2o1` [DDD690], the “BCS Class” value in series [1] is reported as 1. The solubility at 24 h in series [2] (setting [3]) is 226 µM (≈ 76.2 µg/mL). Further, the Papp at 5 h, 10 µM in the series “PAMPA permeability” turned out to be 3.2 ×10⁻⁶ cm/s. Also, in the series on C. parvum (setting [4]), the EC50 came to 190 nM. The EC90 with C. parvum (setting [5]) was 370 nM.

`O=C(NCC1CCCCO1)c1cc(=O)c2ccc(F)c(O)c2o1` (stereo not shown) [DDD695]: the “BCS Class” value in series [1] is given as 3. In series [2] (setting [3]), the solubility at 24 h came to 236 µM (≈ 75.8 µg/mL). The Papp at 5 h, 10 µM in “PAMPA permeability” was 1.1 ×10⁻⁶ cm/s. The EC50 in the series with C. parvum (setting [4]) came to 80 nM. In addition, in the series on C. parvum (setting [5]), the EC90 worked out at 180 nM.

For the compound `O=C(NCC1CCCCC1)c1cc(=O)c2ccc(F)c(O)c2o1` [DDD714], the “BCS Class” value in series [1] is listed as 1. Besides, the concentration in solution in series [2] (setting [3]) (solubility at 24 h) was 377 µM (≈ 120 µg/mL). The same compound showed a Papp at 5 h, 10 µM in the series “PAMPA permeability” of 4.3 ×10⁻⁶ cm/s. In addition, in the series on C. parvum (setting [4]), the EC50 is 30 nM. The EC90 with C. parvum (setting [5]) came to 50 nM.

As for `O=C(NCC1(O)CCCCC1)c1cc(=O)c2ccc(F)c(O)c2o1` [DDD844], in series [1], the “BCS Class” value was 4. In series [2] (setting [3]), this compound returned a solubility at 24 h of 63 µM (≈ 21.1 µg/mL). Moreover, the Papp at 5 h, 10 µM in the series “PAMPA permeability” was 0.17 ×10⁻⁶ cm/s. Further, the EC50 in the series on C. parvum (setting [4]) stood at 170 nM. In addition, the EC90 with C. parvum (setting [5]) was determined as 460 nM.

With `Nc1nc2c(c(C(F)(F)F)n1)C(=O)N(CC1CCCC3(CC3)C1)C2` (stereo not shown) [DDD909], the “BCS Class” value in series [1] came out at 2. In series [2], this compound registered a solubility at 24 h of 14 µM (≈ 4.76 µg/mL). Moreover, the “PAMPA Papp” value in the series “PAMPA permeability” was 17.4 ×10⁻⁶ cm/s. In addition, in the series with C. parvum (setting [6]), the EC90 was 130 nM. The EC50 in the series with C. parvum (setting [7]) was determined as 70 nM.

Turning to `O=C(NCC1(F)CCCCC1)c1cc(=O)c2ccc(F)c(O)c2o1` [DDD993], the “BCS Class” value in series [1] was 1. In series [2] (setting [3]), this compound showed a solubility at 24 h of 234 µM (≈ 78.9 µg/mL). Besides, in “PAMPA permeability”, the Papp at 5 h, 10 µM came to 6.3 ×10⁻⁶ cm/s. In addition, in the series on C. parvum (setting [4]), the EC50 was found to be 100 nM. In addition, in the series on C. parvum (setting [5]), the EC90 is 150 nM.
